Measured values: publication PMC12153776, “Synthesis and Preliminary Cytotoxicity Evaluation of 3-Lup-20(29)-Ene-3β,28-Diol Glycoconjugates Containing a Succinic Linker and a 1,2,3-Triazole Ring” (Cancers, 2025)

How the values were obtained:
[1] = test system: HCT 116 (colorectal carcinoma cell line); test: cells; assay type: cell-based, human; details: for IC50: Homo sapiens, MTT
Procedure: (§1) For biological studies three different cell lines were used: the NHDF-Neo cell line (Lonza, Poland), the HCT-116 cell line (American Type Culture Collection, ATCC, Manassas, VA, USA), and the MCF-7 cell line (purchased by the Maria Sklodowska-Curie Memorial Cancer Center and Institute of Oncology, Gliwice, Poland and gifted for our research). Cells were cultured in 96-well plates (Sarstedt, Nümbrecht, Germany) using RPMI 1640 or DMEM/F12 media (100 µL per well) supplemented with fetal bovine serum (FBS, EURx, Gdańsk, Poland), and with Antibiotic–Antimycotic Solution (Avantor, Gliwice, Poland). […] Stock solutions of the tested compounds were prepared in DMSO and stored under appropriate conditions. Immediately prior to the experiment, these solutions were diluted to the desired concentrations using a growth medium. In no dilution was the DMSO content higher than 1% v/v. The resulting solutions were then used to treat cells (100 µL per well). […] In parallel, the influence of copper ions on cellular proliferation was investigated. In this case, the procedure was analogous to the previously described one, with the difference that glycoconjugates were added in the culture medium with the addition of CuCl2. […] ACROS Organics) was applied following the manufacturer’s protocol. Absorbance of the formazan, formed during the test and dissolved in 100 µL of DMSO, was measured spectrophotometrically at 570 nm using a plate reader (Epoch, Bio-Tek, Winooski, VT, USA). The measured absorbance was analyzed to assess proliferation, where tested samples were compared with the untreated controls (100%). The results from MTT were presented as the mean of three experiments (biological replicates). For each experimental condition within a replicate, four technical repetitions were performed. Technical repetitions were averaged to obtain a single value per replicate. Statistical analyses were conducted using means of the biological replicates. The percentage of viable cells and the standard deviation (SD) were calculated in Excel (Microsoft Office 365, A3 for faculty), using the STDEV.S formula, which determines the standard deviation for a sample set. […] The results are expressed as the average value ± standard deviation (SD). To evaluate statistical significance, two-way analysis of variance (ANOVA) with replication was performed to assess the effects of compound type and concentration on cell proliferation. […] All statistical tests were performed in Excel. […] Two cancer cell lines were chosen for the study: HCT 116 (colorectal carcinoma cell line) and MCF-7 (human breast adenocarcinoma cell line). This selection was not random, as in both types of cancer cell lines overexpression of glucose and galactose transporters is observed. To determine if glycoconjugation enhanced the selectivity of the betulin derivatives, cytotoxicity tests on Normal Human Dermal Fibroblast-Neonatal cells (NHDF-Neo) were also conducted. […] The incubation time for individual cell lines varied from 24 to 72 h, due to differences in the doubling time of these cell lines.

[2] = test system: Normal Human Dermal Fibroblast-Neonatal cells (NHDF-Neo); test: MTT cytotoxicity assay, healthy NHDF-Neo cells; assay type: cell-based; details: 24 h, incubation 24 h
Procedure: as §1

[3] = test system: MCF-7 (human breast adenocarcinoma cell line); test: MTT cytotoxicity assay, MCF-7 cells; assay type: cell-based; details: for IC50: Homo sapiens, MCF7, 72 h, MTT, incubation 72 h
Procedure: as §1, with “Poland). Cells were seeded and incubated for 24 h prior to treatment:” for “Poland).”, “proliferation. When significant main effects were observed (p < 0.05), pairwise comparisons between betulin (BN) and each analogue at corresponding concentrations were conducted using two-tailed unpaired t-tests.” for “proliferation.”, “conducted. The selection of this healthy cell line, so atypical in relation to the cancer cells tested, was based on the desire to compare the selectivity index determined for the currently obtained glycoconjugates with the results obtained for the betulin derivatives we described earlier and draw preliminary conclusions on structure-selectivity relationships.” for “conducted.”

[4] = HCT-116, 24 h, incubation 24 h, no copper added
[5] = HCT-116, 48 h, incubation 48 h, addition of CuCl2 at 20 µM
[6] = HCT-116, 48 h, incubation 48 h, no copper added

| Structure (SMILES) | IC50 [1, 4] | IC50 [1, 5] | IC50 [1, 6] | IC50 ([2]; addition of CuCl2 at 20 µM) | IC50 ([2]; no copper added) | IC50 ([3]; addition of CuCl2 at 20 µM) | IC50 ([3]; no copper added) | SI MCF-7 (ratio of IC50 of NHDF-Neo to IC50 of cancer cells) ([3]; addition of CuCl2 at 20 µM) | SI MCF-7 (ratio of IC50 of NHDF-Neo to IC50 of cancer cells) ([3]; no copper added) | SI HCT 116 (ratio of IC50 of NHDF-Neo to IC50 of cancer cells) ([1]; no copper added) | SI HCT 116 (ratio of IC50 of NHDF-Neo to IC50 of cancer cells) ([1]; addition of CuCl2 at 20 µM) | IC50 ([1]; HCT-116, 24 h, incubation 24 h, addition of CuCl2 at 20 µM) |
| --- | --- | --- | --- | --- | --- | --- | --- | --- | --- | --- | --- | --- |
| C=C(C)[C@@H]1CC[C@]2(COC(=O)CCC(=O)OCc3cn(C[C@H]4O[C@@H](OC(C)=O)[C@H](OC(C)=O)[C@@H](OC(C)=O)[C@H]4OC(C)=O)nn3)CC[C@]3(C)C(CCC4[C@@]5(C)CC[C@H](OC(C)=O)C(C)(C)C5CC[C@]43C)C12 (stereo partly shown) [8a] | > 200 µM | > 200 µM | > 200 µM | > 200 µM | > 200 µM | 88.3 ± 3.31 µM | 153 ± 1.98 µM | >2.3 | >1.3 |  |  |  |
| C=C(C)[C@@H]1CC[C@]2(COC(=O)CCC(=O)OCc3cn([C@@H]4O[C@H](COC(C)=O)[C@H](OC(C)=O)[C@H](OC(C)=O)[C@H]4OC(C)=O)nn3)CC[C@]3(C)C(CCC4[C@@]5(C)CC[C@H](OC(C)=O)C(C)(C)C5CC[C@]43C)C12 (stereo partly shown) [6a] | > 200 µM | > 200 µM | > 200 µM | > 200 µM | > 200 µM | 59.8 ± 1.85 µM | 123 ± 6.84 µM |  | >1.6 |  |  |  |
| C=C(C)[C@@H]1CC[C@]2(COC(=O)CCC(=O)OCc3cn(CCCO[C@@H]4O[C@H](COC(C)=O)[C@@H](OC(C)=O)[C@H](OC(C)=O)[C@H]4OC(C)=O)nn3)CC[C@]3(C)C(CCC4[C@@]5(C)CC[C@H](O)C(C)(C)C5CC[C@]43C)C12 (stereo partly shown) [7d] | > 200 µM | 60.4 ± 6.95 µM | 131 ± 8.76 µM | > 200 µM | > 200 µM | 147 ± 2.32 µM | 165 ± 8.32 µM | >1.4 | >1.2 | >1.5 |  |  |
| C=C(C)[C@@H]1CC[C@]2(COC(=O)CCC(=O)OCc3cn([C@@H]4O[C@H](COCc5ccccc5)[C@@H](OCc5ccccc5)[C@H](OCc5ccccc5)[C@H]4OCc4ccccc4)nn3)CC[C@]3(C)C(CCC4[C@@]5(C)CC[C@H](OC(C)=O)C(C)(C)C5CC[C@]43C)C12 (stereo partly shown) [5b] | > 200 µM |  | > 200 µM |  | > 200 µM |  | 168 ± 11.7 µM |  | >1.2 |  |  |  |
| C=C(C)[C@@H]1CC[C@]2(COC(=O)CCC(=O)OCc3cn(CCCO[C@@H]4O[C@H](COC(C)=O)[C@@H](OC(C)=O)[C@H](OC(C)=O)[C@H]4OC(C)=O)nn3)CC[C@]3(C)C(CCC4[C@@]5(C)CC[C@H](OC(C)=O)C(C)(C)C5CC[C@]43C)C12 (stereo partly shown) [7b] | > 200 µM | 112.5 ± 0.57 µM | > 200 µM | > 200 µM | > 200 µM | 124 ± 1.64 µM | 152 ± 2.91 µM | >1.6 | >1.3 |  | >1.8 |  |
| COc1cccc2c1C(=O)c1c(O)c3c(c(O)c1C2=O)C[C@@](O)(C(=O)CO)C[C@@H]3O[C@H]1C[C@H](N)[C@H](O)[C@H](C)O1 [Doxorubicin, doxorubicin, reference compound] | 13.2 ± 0.58 µM |  | 1.89 ± 0.19 µM |  |  |  | 0.29 ± 0.04 µM |  |  |  |  |  |
| C=C(C)[C@@H]1CC[C@]2(COC(=O)CCC(=O)OCc3cn(CCO[C@@H]4O[C@H](COC(C)=O)[C@@H](OC(C)=O)[C@H](OC(C)=O)[C@H]4OC(C)=O)nn3)CC[C@]3(C)C(CCC4[C@@]5(C)CC[C@H](O)C(C)(C)C5CC[C@]43C)C12 (stereo partly shown) [7c] | > 200 µM | > 200 µM | > 200 µM | > 200 µM | > 200 µM | 118 ± 1.42 µM | 135 ± 7.92 µM | >1.7 | >1.5 |  |  |  |
| C=C(C)[C@@H]1CC[C@]2(COC(=O)CCC(=O)OCc3cn([C@@H]4O[C@H](COC(C)=O)[C@@H](OC(C)=O)[C@H](OC(C)=O)[C@H]4OC(C)=O)nn3)CC[C@]3(C)C(CCC4[C@@]5(C)CC[C@H](O)C(C)(C)C5CC[C@]43C)C12 (stereo partly shown) [5c] | > 200 µM | > 200 µM | > 200 µM | > 200 µM | > 200 µM | 70.7 ± 5.44 µM | 128 ± 1.35 µM | >2.8 | >1.6 |  |  |  |
| C=C(C)[C@@H]1CC[C@]2(COC(=O)CCC(=O)OCc3cn(CCO)nn3)CC[C@]3(C)C(CCC4[C@@]5(C)CC[C@H](OC(C)=O)C(C)(C)C5CC[C@]43C)C12 (stereo partly shown) [9a] | > 200 µM | > 200 µM | > 200 µM | > 200 µM | > 200 µM | 139 ± 6.21 µM | 148 ± 8.71 µM |  | >1.4 |  |  | > 200 µM |
| C=C(C)[C@@H]1CC[C@]2(COC(=O)CCC(=O)OCc3cn(CCO[C@@H]4O[C@H](COC(C)=O)[C@@H](OC(C)=O)[C@H](OC(C)=O)[C@H]4OC(C)=O)nn3)CC[C@]3(C)C(CCC4[C@@]5(C)CC[C@H](OC(C)=O)C(C)(C)C5CC[C@]43C)C12 (stereo partly shown) [7a] | > 200 µM | 150 ± 8.01 µM | > 200 µM | > 200 µM | > 200 µM | 135 ± 10.2 µM | 144 ± 4.7 µM | >1.5 | >1.4 |  | >1.3 |  |
